Results taken from ChEMBL document CHEMBL1133782, “Solid-phase synthesis of cyclic alkoxyketones, inhibitors of the cysteine protease cathepsin K” (Bioorg Med Chem Lett, 2001).
pKi: −log10 of the molar value.

Molecular target: T1, Cathepsin K (Homo sapiens, UniProt P43235)
T1 sequence (P43235 whole entry): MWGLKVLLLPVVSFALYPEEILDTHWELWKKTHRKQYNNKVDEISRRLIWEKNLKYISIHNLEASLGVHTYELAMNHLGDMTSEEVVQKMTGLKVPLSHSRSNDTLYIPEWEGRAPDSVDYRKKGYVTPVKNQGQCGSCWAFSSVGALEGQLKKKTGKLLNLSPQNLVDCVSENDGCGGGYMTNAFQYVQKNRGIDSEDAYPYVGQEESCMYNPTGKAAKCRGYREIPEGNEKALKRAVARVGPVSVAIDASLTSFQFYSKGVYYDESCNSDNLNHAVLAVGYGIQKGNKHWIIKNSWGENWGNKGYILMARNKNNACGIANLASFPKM
Experiment: Inhibitory activity against human cysteine protease, cathepsin K.

| Structure (SMILES) | pKi |
| --- | --- |
| CC(C)[C@H](NC(=O)c1cc2ccccc2s1)C(=O)NC1COCC1=O (some centres undefined) | < 5.00 |
| O=C(N[C@@H](CC1CCCCC1)C(=O)NC1COCC1=O)c1cc2ccccc2s1 (some centres undefined) | < 5.00 |
| O=C(O)CC[C@H](NC(=O)c1cc2ccccc2s1)C(=O)NC1COCC1=O (some centres undefined) | < 5.00 |
| CCC[C@H](NC(=O)c1cc2ccccc2s1)C(=O)NC1COCC1=O (some centres undefined) | 6.72 |
| O=C(CNC(=O)c1cc2ccccc2s1)NC1COCC1=O (centres undefined) | < 5.00 |
| CC(C)C[C@H](NC(=O)C1CCCCC1)C(=O)NC1COCC1=O (some centres undefined) | < 6.00 |
| CC(C)C[C@H](NC(=O)c1ccc2ccccc2n1)C(=O)NC1COCC1=O (some centres undefined) | 7.36 |
| NC(=O)CC[C@H](NC(=O)c1cc2ccccc2s1)C(=O)NC1COCC1=O (some centres undefined) | < 5.00 |
| O=C(N[C@@H](Cn1ccnc1)C(=O)NC1COCC1=O)c1cc2ccccc2s1 (some centres undefined) | < 5.00 |
| C[C@H](NC(=O)c1cc2ccccc2s1)C(=O)NC1COCC1=O (some centres undefined) | < 5.00 |
| CC(=O)N[C@@H](CC(C)C)C(=O)NC1COCC1=O (some centres undefined) | < 6.00 |
| COCC(=O)[C@H](C)NC(=O)[C@H](CC(C)C)NC(=O)OCc1ccccc1 | 7.22 |
| O=C(N[C@@H](Cc1ccccc1)C(=O)NC1COCC1=O)c1cc2ccccc2s1 (some centres undefined) | < 5.00 |
| NCCCC[C@H](NC(=O)c1cc2ccccc2s1)C(=O)NC1COCC1=O (some centres undefined) | < 5.00 |
| CC(C)C[C@H](NC(=O)OCc1ccccc1)C(=O)NC1COCC1=O (some centres undefined) | 6.85 |
| CC(O)[C@H](NC(=O)c1cc2ccccc2s1)C(=O)NC1COCC1=O (some centres undefined) | < 5.00 |

Further lines, results first:

| pKi | Structure (SMILES) |
| --- | --- |
| 7.96 | CC(C)C[C@H](NC(=O)c1cc2ccccc2s1)C(=O)NC1COCC1=O (some centres undefined) |
| 7.42 | CC(C)C[C@H](NC(=O)c1ccc2cc[nH]c2c1)C(=O)NC1COCC1=O (some centres undefined) |
| 6.19 | CC(C)C[C@H](NC(=O)c1cccs1)C(=O)NC1COCC1=O (some centres undefined) |
| 7.82 | CC(C)C[C@H](NC(=O)c1ccc(C(C)(C)C)cc1)C(=O)NC1COCC1=O (some centres undefined) |
| 6.09 | CC(C)C[C@H](NC(=O)c1ccc(F)c(F)c1)C(=O)NC1COCC1=O (some centres undefined) |
| 6.38 | CC(C)C[C@H](NC(=O)c1ccccn1)C(=O)NC1COCC1=O (some centres undefined) |
| 6.15 | CC(C)C[C@H](NC(=O)c1ccc(S(C)(=O)=O)cc1)C(=O)NC1COCC1=O (some centres undefined) |
| < 6.00 | CC(C)C[C@H](NC(=O)c1cccc([N+](=O)[O-])c1)C(=O)NC1COCC1=O (some centres undefined) |
| 6.74 | CC(C)C[C@H](NC(=O)c1ccccc1)C(=O)NC1COCC1=O (some centres undefined) |
| 7.72 | CC(C)C[C@H](NC(=O)c1ccc(-c2ccccc2)cc1)C(=O)NC1COCC1=O (some centres undefined) |
| 7.21 | CC(C)C[C@H](NC(=O)c1ccc2ccccc2c1)C(=O)NC1COCC1=O (some centres undefined) |
| 7.28 | CC(C)C[C@H](NC(=O)c1cc2ccccc2o1)C(=O)NC1COCC1=O (some centres undefined) |
| 7.19 | CC(C)C[C@H](NC(=O)c1ccc(C(C)C)cc1)C(=O)NC1COCC1=O (some centres undefined) |
